Source: the supplement of paper PMC10627819

How the values were obtained:
[1] = tested on: S. aureus DSM 20231; assay: Bliss interaction score (quartile over a dose matrix) (fitness difference); higher = more antagonism (negative = synergy)
How it was run: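 The Bliss score subtracts expected fitness, the product of the single-drug fitness values, from observed fitness. Fitness is plate-normalised OD595 at entry into stationary phase, relative to the robust no-drug mean and capped at 1, with single-drug fitness inferred from combinations. Summaries are quartiles over technical, biological and donor/recipient replicates.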

[2] = tested on: S. aureus Newman; assay: fitness (endpoint OD595 vs no drug) (fraction); higher = more growth
How it was run: (§1)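 Plates with 384 wells were inoculated at OD595 0.01 using 30 µl of TSB, LB Lennox or CY, or 55 µl for S. pneumoniae. Incubation was at 37 °C, with OD595 measured every 30 min for 14 h. Fitness is the stationary-phase transition optical density over the robust mean of no-drug control wells, after first-reading background subtraction; it is capped at 1.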

[3] = tested on: S. aureus DSM 20231; assay: as above
How it was run: as §1

[4] = tested on: S. pneumoniae D39V; assay: as above
How it was run: as §1

[5] = first compound 0.125 µg/mL, partner 0.0156 µg/mL
[6] = first compound 0.125 µg/mL, partner 0.0312 µg/mL
[7] = first compound 0.125 µg/mL, partner 0.0625 µg/mL
[8] = first compound 0.25 µg/mL, partner 0.0156 µg/mL
[9] = first compound 0.25 µg/mL, partner 0.0312 µg/mL
[10] = first compound 0.25 µg/mL, partner 0.0625 µg/mL
[11] = first compound 0.5 µg/mL, partner 0.0156 µg/mL
[12] = first compound 0.5 µg/mL, partner 0.0312 µg/mL
[13] = first compound 0.5 µg/mL, partner 0.0625 µg/mL
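Throughout, for Bliss interaction score (quartile over a dose matrix): first quartile when negative (synergy) and third quartile when positive (antagonism).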

`CN(C)C(=O)C(CCN1CCC(O)(c2ccc(Cl)cc2)CC1)(c1ccccc1)c1ccccc1` [Loperamide] + O=c1c(O)c(-c2ccc(O)c(O)c2)oc2cc(O)cc(O)c12 [Quercetin] gave a Bliss interaction score [1] of 0.242.
`CCCSc1nc(N[C@@H]2C[C@H]2c2ccc(F)c(F)c2)c2nnn([C@@H]3C[C@H](OCCO)[C@@H](O)[C@H]3O)c2n1` [Ticagrelor] + CC1=C\[C@@H](O)CC(=O)Cc2nc(co2)C(=O)N2CCC=C2C(=O)O[C@H](C(C)C)[C@H](C)/C=C/C(=O)NC\C=C\1 [Virginiamycin M1] was tested, and the Bliss interaction score [1] was 0.253.
Compound `C[C@]12CC[C@@H]3c4ccc(O)cc4CC[C@H]3[C@@H]1CC[C@@H]2O` [Estradiol] + CC[C@H]1OC(=O)[C@H](C)C(=O)[C@H](C)[C@@H](O[C@@H]2O[C@H](C)C[C@H](N(C)C)[C@H]2O)[C@](C)(OC)C[C@@H](C)C(=O)[C@H](C)[C@H]2N(CCCCn3cnc(-c4cccnc4)c3)C(=O)O[C@]12C [Telithromycin] has a Bliss interaction score [1] of 0.268.
`CC1(C)S[C@@H]2[C@H](NC(=O)[C@H](N)c3ccc(O)cc3)C(=O)N2[C@H]1C(=O)O` [Amoxicillin] + CC(=O)Oc1cccc2c1C(=O)c1c(OC(C)=O)cc(C(=O)O)cc1C2=O [Diacerein] showed a Bliss interaction score [1] of -0.192.
Compound `C[C@]12CC[C@@H]3c4ccc(O)cc4CC[C@H]3[C@@H]1CC[C@@H]2O` [Estradiol] + COc1cc(Cc2cnc(N)nc2N)cc(OC)c1OC [Trimethoprim] has a Bliss interaction score [1] of 0.263.
`C[C@]12CC[C@@H]3c4ccc(O)cc4CC[C@H]3[C@@H]1CC[C@@H]2O` [Estradiol] + CO[C@@]12[C@H](COC(N)=O)C3=C(C(=O)C(C)=C(N)C3=O)N1C[C@@H]1N[C@@H]12 [MitomycinC] gave a Bliss interaction score [1] of 0.179.
`CCN(CC)C(=O)/C(C#N)=C/c1cc(O)c(O)c([N+](=O)[O-])c1` [Entacapone] + CN1C2=CC=CC=C2N=C3C1=CC=CC3=O [Pyocyanin] showed a Bliss interaction score [1] of -0.283.
For `CN(C)C(=O)C(CCN1CCC(O)(c2ccc(Cl)cc2)CC1)(c1ccccc1)c1ccccc1` [Loperamide] + CN1CCN(C2=Nc3ccccc3Oc3ccc(Cl)cc32)CC1 [Loxapine], the Bliss interaction score [1] was 0.122.
Compound `CN(C)C(=O)C(CCN1CCC(O)(c2ccc(Cl)cc2)CC1)(c1ccccc1)c1ccccc1` [Loperamide] + CCOC(=O)N1CCC(=C2c3ccc(Cl)cc3CCc3cccnc32)CC1 [Loratadine] has a Bliss interaction score [1] of -0.278.
In the case of `CCCSc1nc(N[C@@H]2C[C@H]2c2ccc(F)c(F)c2)c2nnn([C@@H]3C[C@H](OCCO)[C@@H](O)[C@H]3O)c2n1` [Ticagrelor] + COc1cc(Cc2cnc(N)nc2N)cc(OC)c1OC [Trimethoprim], the Bliss interaction score [1] is reported as -0.152.
`CCN(CC)C(=O)/C(C#N)=C/c1cc(O)c(O)c([N+](=O)[O-])c1` [Entacapone] + CC(=O)NC[C@H]1CN(c2ccc(N3CCOCC3)c(F)c2)C(=O)O1 [Linezolid] was tested, and the Bliss interaction score [1] was -0.178.
Compound `CO/N=C(\C(=O)N[C@@H]1C(=O)N2C(C(=O)[O-])=C(C[N+]3(C)CCCC3)CS[C@H]12)c1csc(N)n1` [Cefepime] + CO[C@@]12[C@H](COC(N)=O)C3=C(C(=O)C(C)=C(N)C3=O)N1C[C@@H]1N[C@@H]12 [Mitomycin C] has a fitness [2, 5] of 0.749, a fitness [2, 6] of 0.661 and a fitness [2, 7] of 0.556. For the same compound, the fitness [2, 8] was 0.661, the fitness [2, 9] was 0.592 and the fitness [2, 10] was 0.483. The fitness [2, 11] was 0.621, the fitness [2, 12] was 0.578 and the fitness [2, 13] was 0.522. It also gave a fitness [3, 5] of 0.685, a fitness [3, 6] of 0.653 and a fitness [3, 7] of 0.568. For the same compound, the fitness [3, 8] was 0.63, the fitness [3, 9] was 0.617 and the fitness [3, 10] was 0.578. For the same compound, the fitness [3, 11] was 0.632, the fitness [3, 12] was 0.572 and the fitness [3, 13] was 0.549. It also gave a fitness ([4]; first compound 0.007 µg/mL, partner 0.002 µg/mL) of 0.88, a fitness ([4]; first compound 0.007 µg/mL, partner 0.004 µg/mL) of 0.803 and a fitness ([4]; first compound 0.007 µg/mL, partner 0.008 µg/mL) of 0.68. It also gave a fitness ([4]; first compound 0.0078 µg/mL, partner 0.001075 µg/mL) of 0.976, a fitness ([4]; first compound 0.0078 µg/mL, partner 0.00215 µg/mL) of 0.924 and a fitness ([4]; first compound 0.0078 µg/mL, partner 0.0043 µg/mL) of 0.867. The fitness ([4]; first compound 0.014 µg/mL, partner 0.002 µg/mL) was 0.859, the fitness ([4]; first compound 0.014 µg/mL, partner 0.004 µg/mL) was 0.819 and the fitness ([4]; first compound 0.014 µg/mL, partner 0.008 µg/mL) was 0.669. The fitness ([4]; first compound 0.0155 µg/mL, partner 0.001075 µg/mL) was 0.98, the fitness ([4]; first compound 0.0155 µg/mL, partner 0.00215 µg/mL) was 0.931 and the fitness ([4]; first compound 0.0155 µg/mL, partner 0.0043 µg/mL) was 0.857. It also gave a fitness ([4]; first compound 0.028 µg/mL, partner 0.002 µg/mL) of 0.716, a fitness ([4]; first compound 0.028 µg/mL, partner 0.004 µg/mL) of 0.7 and a fitness ([4]; first compound 0.028 µg/mL, partner 0.008 µg/mL) of 0.628. It also gave a fitness ([4]; first compound 0.031 µg/mL, partner 0.001075 µg/mL) of 0.708, a fitness ([4]; first compound 0.031 µg/mL, partner 0.00215 µg/mL) of 0.647 and a fitness ([4]; first compound 0.031 µg/mL, partner 0.0043 µg/mL) of 0.63.
With `CN(C)C(=O)C(CCN1CCC(O)(c2ccc(Cl)cc2)CC1)(c1ccccc1)c1ccccc1` [Loperamide] + O=C(O)Cc1cc(I)c(Oc2ccc(O)c(I)c2)c(I)c1 [Tiratricol] the Bliss interaction score [1] was 0.751.
Work on `C[C@H]1C[C@@H]2[C@H]([C@@H](O)C[C@@]3(C)[C@H]2CC[C@]3(O)C(=O)CO)[C@@]2(C)C=CC(=O)C=C12` [Methylprednisolone] + CC[C@H]1OC(=O)[C@H](C)C(=O)[C@H](C)[C@@H](O[C@@H]2O[C@H](C)C[C@H](N(C)C)[C@H]2O)[C@](C)(OC)C[C@@H](C)C(=O)[C@H](C)[C@H]2N(CCCCn3cnc(-c4cccnc4)c3)C(=O)O[C@]12C [Telithromycin] yielded a Bliss interaction score [1] of -0.356.
`CCN(CC)C(=O)/C(C#N)=C/c1cc(O)c(O)c([N+](=O)[O-])c1` [Entacapone] + CO[C@@]12[C@H](COC(N)=O)C3=C(C(=O)C(C)=C(N)C3=O)N1C[C@@H]1N[C@@H]12 [MitomycinC] showed a Bliss interaction score [1] of 0.176.
